The record followed here is patent US12528814B2, “Bifunctional degraders of interleukin-1 receptor-associated kinases and therapeutic use thereof” (NURIX THERAPEUTICS, INC., priority 2020, dated 2026).

Molecules are shown by their SMILES.

For experiment [1], the target named is T1, IRAK4 (Homo sapiens (Human), UniProt Q9NWZ3). Put plainly: IRAK4 Biochemical HTRF Kinase Assay. The following applies: Table 5; multiple runs; read-out: IRAK4 HTRF biochemical: IC50. The method, boiled down: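 HTRF KinEASE STK S1 format measuring IRAK4 phosphorylation of biotinylated peptide; reaction solution of 5 μM STK-S1, 10 mM ATP, 10 mM MgCl2 added (stock, to 10 μl final), 90 min at ambient temperature, detection 60 min. IC50 from sixteen-point duplicate curves by non-linear regression.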
In general terms: TR-FRET usually uses a lanthanide donor and a delayed reading to cut background.
Target sequence in this assay (Q9NWZ3 whole entry, species assumed): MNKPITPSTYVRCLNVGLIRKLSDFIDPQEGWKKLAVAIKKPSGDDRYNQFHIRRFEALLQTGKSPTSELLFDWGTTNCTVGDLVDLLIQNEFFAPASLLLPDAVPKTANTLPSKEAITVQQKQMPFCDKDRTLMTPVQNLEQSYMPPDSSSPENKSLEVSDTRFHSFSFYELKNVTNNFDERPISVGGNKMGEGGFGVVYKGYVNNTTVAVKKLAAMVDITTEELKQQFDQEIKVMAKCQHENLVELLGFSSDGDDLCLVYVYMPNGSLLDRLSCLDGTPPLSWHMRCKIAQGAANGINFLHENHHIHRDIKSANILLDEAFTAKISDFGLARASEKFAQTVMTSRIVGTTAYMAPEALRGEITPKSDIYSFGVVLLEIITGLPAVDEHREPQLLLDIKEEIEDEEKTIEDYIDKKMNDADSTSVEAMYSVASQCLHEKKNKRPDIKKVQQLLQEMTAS

In experiment [2] the target is T1, IRAK4. In words: IRAK4 Degradation HiBiT Assay. The following applies: multiple runs, HiBiT-tagged Jurkat cells, 4 hrs; for Dmax: Jurkat, read-out: Cellular IRAK4 HiBiT: Dmax, Table 5; for DC50: read-out: Cellular IRAK4 HiBiT: DC50, Table 5. (In general: With HiBiT, luminescence reflects the tagged protein that the partner subunit can reach.)
Target sequence in this assay (Q9NWZ3 whole entry): as the sequence (Q9NWZ3 whole entry, species assumed) above

The term IC50 denotes the midpoint of a concentration-inhibition curve. What is called Dmax is the greatest extent of degradation seen. As a reminder, the DC50 is the concentration at which degradation of the target reaches its halfway point. For `CNc1cc(-c2ccc3cc(C#N)cnn23)ncc1-c1nnc([C@H]2C[C@H](NC(=O)C[C@H](NC(=O)[C@@H]3C[C@@H](O)CN3C(=O)[C@@H](NC(=O)C3(F)CC3)C(C)(C)C)c3ccc(-c4scnc4C)cc3)C2)s1` [Example 183, (2S,4R)—N—((S)-3-(((1r,3S)-3-(5-(6-(3-cyanopyrrolo[1,2-b]pyridazin-7-yl)-4-(methylamino)pyridin-3-yl)-1,3,4-thiadiazol-2-yl)cyclobutyl)amino)-1-(4-(4-methylthiazol-5-yl)phenyl)-3-oxopropyl)-1-((S)-2-(1-fluorocyclopropane-1-carboxamido)-3,3-dimethylbutanoyl)-4-hydroxypyrrolidine-2-carboxamide], the IC50 in experiment [1] was 2.3 nM. In experiment [2], the Dmax is 111% and the DC50 was 222 nM.
In the case of `CNc1cc(-c2ccc3cc(C#N)cnn23)ncc1-c1nnc(N2CCC(C3CCN(C(=O)c4ccc5c(c4)C(=O)N(C4CCC(=O)NC4=O)C5=O)CC3)CC2)s1` (stereo not drawn) [Example 184, 7-(5-(5-(1′-(2-(2,6-dioxopiperidin-3-yl)-1,3-dioxoisoindoline-5-carbonyl)-[4,4′-bipiperidin]-1-yl)-1,3,4-thiadiazol-2-yl)-4-(methylamino)pyridin-2-yl)pyrrolo[1,2-b]pyridazine-3-carbonitrile], in experiment [1], the half-maximal inhibitory concentration (IC50) turned out to be 0.9 nM. Moreover, in experiment [2], the Dmax was 96% and the DC50 worked out at 71.4 nM.
`CNc1cc(-c2ccc3cc(C#N)cnn23)ncc1-c1nnc(N2CCC(C3CCN(C(=O)CN4CCN(c5ccc6c(c5)C(=O)N(C5CCC(=O)NC5=O)C6=O)CC4)CC3)CC2)s1` (stereo not drawn) [Example 185, 7-(5-(5-(1′-(2-(4-(2-(2,6-dioxopiperidin-3-yl)-1,3-dioxoisoindolin-5-yl)piperazin-1-yl)acetyl)-[4,4′-bipiperidin]-1-yl)-1,3,4-thiadiazol-2-yl)-4-(methylamino)pyridin-2-yl)pyrrolo[1,2-b]pyridazine-3-carbonitrile]: the IC50 in experiment [1] is 1.5 nM. Also, in experiment [2], the Dmax turned out to be 89% and the DC50 is 126 nM.
Turning to `CNc1cc(-c2ccc3cc(C#N)cnn23)ncc1-c1nnc(N2CCC(N3CCN(C(=O)c4ccc5c(c4)C(=O)N(C4CCC(=O)NC4=O)C5=O)CC3)CC2)s1` (stereo not drawn) [Example 186, 7-(5-(5-(4-(4-(2-(2,6-dioxopiperidin-3-yl)-1,3-dioxoisoindoline-5-carbonyl)piperazin-1-yl)piperidin-1-yl)-1,3,4-thiadiazol-2-yl)-4-(methylamino)pyridin-2-yl)pyrrolo[1,2-b]pyridazine-3-carbonitrile], the IC50 in experiment [1] stood at 0.3 nM. For the same compound, in experiment [2], the Dmax is 96% and the DC50 is 17.1 nM.
Regarding `CNc1cc(-c2ccc3cc(C#N)cnn23)ncc1-c1nnc(N2CCN(CCC3CCN(c4ccc5c(c4)C(=O)N(C4CCC(=O)NC4=O)C5=O)CC3)CC2)s1` (stereo not drawn) [Example 187, 7-(5-(5-(4-(2-(1-(2-(2,6-dioxopiperidin-3-yl)-1,3-dioxoisoindolin-5-yl)piperidin-4-yl)ethyl)piperazin-1-yl)-1,3,4-thiadiazol-2-yl)-4-(methylamino)pyridin-2-yl)pyrrolo[1,2-b]pyridazine-3-carbonitrile], the IC50 in experiment [1] stood at 0.9 nM. Besides, in experiment [2], the Dmax was 95% and the DC50 is 88.3 nM.
On to `CNc1cc(-c2ccc3cc(C#N)cnn23)ncc1-c1nnc([C@H]2CC[C@H](N(C)C(=O)CCN3CCN(c4ccc5c(c4)C(=O)N(C4CCC(=O)NC4=O)C5=O)CC3)CC2)s1` (stereo partly drawn) [Example 188, N-((1r,4r)-4-(5-(6-(3-cyanopyrrolo[1,2-b]pyridazin-7-yl)-4-(methylamino)pyridin-3-yl)-1,3,4-thiadiazol-2-yl)cyclohexyl)-3-(4-(2-(2,6-dioxopiperidin-3-yl)-1,3-dioxoisoindolin-5-yl)piperazin-1-yl)-N-methylpropanamide], for which the half-inhibitory concentration (IC50) in experiment [1] turned out to be 0.5 nM. Besides, in experiment [2], the Dmax was determined as 108% and the DC50 worked out at 16 nM.
